# Assay results as given in patent US11753399B2, “Therapeutic compounds” (Gilead Sciences, Inc., priority 2018, dated 2023).
# What was measured:
# [1] = system: HIV-IIIb; assay: Test A: Antiviral Assay in MT4 Cells; format: cell-based, HIV-1; conditions: inhibition of virus-induced cell killing, MT-4 cells, HIV-IIIb, 5 days, values normalized to 100%
# How it was run: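 MT-4 cells infected with HIV-IIIb at m.o.i. 0.003 for 1 hour, then added at 2000 cells per well to diluted compound. Incubated 5 days at 37° C. Cell viability read as CellTiter-Glo chemiluminescence after 10 min lysis at room temperature.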
# [2] = system: MT-4 cells; assay: Test B: Cytotoxicity Assay (same protocol as Test A, uninfected cells); format: cell-based; conditions: uninfected MT-4 cells, 5 days, CellTiter-Glo
compound,measurement,setting,value
CC(C)(O)c1nnc(Nc2nn(CC(F)F)c3c(-c4ccc(C#CC(C)(C)S(=O)(=O)C5CC5)nc4[C@H](Cc4cc(F)cc(F)c4)NC(=O)Cn4nc(C(F)F)c5c4C(F)(F)[C@@H]4C[C@H]54)ccc(Cl)c23)o1 [Example 25],% inhibition at 0.01 μM,[1]; from dose response curve at 0.01 μM (10 nM),100%
same,% inhibition at 0.20 μM,[1]; from dose response curve at 0.20 μM (200 nM),100%
same,CC50,[2],> 57.1 µM
